# Experimental data as given in ChEMBL document CHEMBL1130925, “Anti-AIDS agents. 33. Synthesis and anti-HIV activity of mono-methyl substituted 3',4'-di-O-(-)-camphanoyl-(+)-cis-khellactone (DCK) analogues” (Bioorg Med Chem Lett, 1998).
# pEC50, pIC50: −log10 of the molar value.
# Columns and labels:
# [1] = Compound was tested for anti HIV activity by measuring therapeutic index in H9 lymphocytes; IC50/EC50; format: organism-based; details: human immunodeficiency virus, H9 lymphocytes infected with HIV; read-out: TI
# H9 [2] = assay: Compound was evaluated for anti-HIV activity and the concentration that inhibits uninfected H9 cell growth by 50%; format: functional, cell-based; details: Homo sapiens
# H9 [3] = assay: Compound was evaluated for anti-HIV activity in acutely infected H9 Lymphocytes; format: functional, cell-based; details: Homo sapiens
Compound,pEC50 (H9 [3]),selectivity ratio [1],pIC50 (H9 [2])
CC1(C)Oc2ccc3ccc(=O)oc3c2[C@@H](OC(=O)C23CCC(C)(C(=O)O2)C3(C)C)[C@H]1OC(=O)C12CCC(C)(C(=O)O1)C2(C)C (stereo not given in full),–,137000,–
Cc1cc2ccc3c(c2oc1=O)[C@@H](OC(=O)C12CCC(C)(C(=O)O1)C2(C)C)[C@@H](OC(=O)C12CCC(C)(C(=O)O1)C2(C)C)C(C)(C)O3 (stereo not given in full),12.80,–,< 3.80
Cc1cc(=O)oc2c3c(ccc12)OC(C)(C)[C@H](OC(=O)C12CCC(C)(C(=O)O1)C2(C)C)[C@@H]3OC(=O)C12CCC(C)(C(=O)O1)C2(C)C (stereo not given in full),12.80,–,< 3.80

# The remaining compounds from weak to strong by pEC50 (H9 [3]), led by results:
pEC50 (H9 [3]),Compound,selectivity ratio [1],pIC50 (H9 [2])
6.82,Cc1cc2ccc(=O)oc2c2c1OC(C)(C)[C@H](OC(=O)C13CCC(C)(C(=O)O1)C3(C)C)[C@@H]2OC(=O)C12CCC(C)(C(=O)O1)C2(C)C (stereo not given in full),220,4.48
12.37,Cc1cc2c(c3oc(=O)ccc13)[C@@H](OC(=O)C13CCC(C)(C(=O)O1)C3(C)C)[C@@H](OC(=O)C13CCC(C)(C(=O)O1)C3(C)C)C(C)(C)O2 (stereo not given in full),–,< 3.80
